# Where two headings read alike, the source gives them in different places.
# Tests used:
# [1] = test system: RNA Polymerase II Serine 5 phosphorylation (Rpb1 CTD, downstream substrate of CDK7) in A549 cells; assay: Imaging-based cellular RNA PolII Ser5 phosphorylation assay in A549 cells; assay type: cell-based, human; conditions: Homo sapiens, A549, A549 cells, wild-type CDK7; RNA PolII Ser5 phosphorylation; averaged over all measurements; read-out: CDK7_A549 Wild-type CDK7 (pIC50) (converted)
# Method in brief: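 IC50 derived by fitting % control (DMSO high, 10 μM reference low) against concentration, with Hill slope. Readout: high-content imaging of phospho-Ser5 Rpb1 CTD antibody staining in fixed, permeabilized A549 cells exposed to compound 3 h after 20 h culture in 1% FBS DMEM.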
# [2] = target: CDK7/cyclinH/MAT1 trimeric complex (Homo sapiens, UniProt P50613); assay: In vitro CDK7 assay, potency of irreversible covalent inhibitors (kinact/KI), coupled PK/LDH ADP readout at 340 nm; conditions: for Ki: CDK7 (20 nM enz.) (KI, μM); for kinact: read-out: CDK7 (20 nM enz.) (kinact, s^−1), 20 nM enzyme
# Sequence of CDK7/cyclinH/MAT1 trimeric complex (P50613 whole entry): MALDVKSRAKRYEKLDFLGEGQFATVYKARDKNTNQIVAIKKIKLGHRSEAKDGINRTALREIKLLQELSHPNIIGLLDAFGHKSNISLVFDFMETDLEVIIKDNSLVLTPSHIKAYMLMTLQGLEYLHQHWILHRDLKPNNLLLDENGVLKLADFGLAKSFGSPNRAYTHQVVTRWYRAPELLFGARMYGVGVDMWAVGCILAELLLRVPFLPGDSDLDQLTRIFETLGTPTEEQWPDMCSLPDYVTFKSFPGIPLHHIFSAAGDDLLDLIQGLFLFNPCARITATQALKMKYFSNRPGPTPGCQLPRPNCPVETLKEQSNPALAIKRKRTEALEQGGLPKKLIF
# Sequence of CDK7/cyclinH/MAT1 trimeric complex (P51946 whole entry partner): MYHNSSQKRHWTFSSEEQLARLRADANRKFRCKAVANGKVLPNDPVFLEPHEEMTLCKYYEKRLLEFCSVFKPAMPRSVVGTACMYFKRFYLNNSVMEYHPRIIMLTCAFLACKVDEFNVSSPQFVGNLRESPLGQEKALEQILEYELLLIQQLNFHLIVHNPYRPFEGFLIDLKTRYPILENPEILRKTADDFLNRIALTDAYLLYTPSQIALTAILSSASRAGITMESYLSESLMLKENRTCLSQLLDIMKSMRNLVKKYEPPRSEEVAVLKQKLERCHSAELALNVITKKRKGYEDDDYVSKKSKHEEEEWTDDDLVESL
# Sequence of CDK7/cyclinH/MAT1 trimeric complex (P51948 whole entry partner): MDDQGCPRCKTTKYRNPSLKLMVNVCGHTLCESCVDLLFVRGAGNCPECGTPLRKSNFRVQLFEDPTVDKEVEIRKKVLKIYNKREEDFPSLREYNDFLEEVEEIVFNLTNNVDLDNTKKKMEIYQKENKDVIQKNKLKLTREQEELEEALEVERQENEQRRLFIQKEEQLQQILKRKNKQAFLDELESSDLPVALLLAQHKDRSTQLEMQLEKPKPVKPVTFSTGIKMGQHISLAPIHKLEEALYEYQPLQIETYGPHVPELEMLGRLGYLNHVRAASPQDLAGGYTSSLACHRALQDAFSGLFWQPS
# [3] = test system: RNA Polymerase II Serine 5 phosphorylation in A549 cells overexpressing CDK7-mutant (C312S); assay: Imaging-based cellular RNA PolII Ser5 phosphorylation assay in A549 cells overexpressing CDK7-mutant (C312S); assay type: cell-based, human; conditions: Homo sapiens, A549, A549 cells overexpressing CDK7-mutant (C312S); RNA PolII Ser5 phosphorylation; averaged over all measurements; read-out: CDK7_A549 mutant hCDK7(pIC50) (converted)
# Method in brief: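 Readout was automated imaging of anti-phospho-Ser5 Rpb1 CTD immunofluorescence, with IC50 fitted to % control versus concentration. Cells were A549 stably overexpressing non-covalently targetable CDK7 C312S alongside wild-type, exposed to compound 3 h at 37 °C. DMSO and 10 μM reference compound served as controls.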
# [4] = read-out: CDK7 (20 nM enz.) (kobs/[I], M^−1*s^−1), 20 nM enzyme
# [5] = read-out: CDK7 (20 nM enz.) (kinact/KI, M^−1*s^−1), 20 nM enzyme
IC50 [1],"kinact/KI [2, 4]",IC50 [3],Ki ([2]; 20 nM enzyme),kinact [2],"kinact/KI [2, 5]","CDK7 (20 nM enz.) (kinact, s^−1) ([2]; 20 nM enzyme)",SMILES
40.7 nM,758 M⁻¹ s⁻¹,3.31 µM,,,,,"C=CC(=O)N1CC[C@H](N2CC(c3cc4c(c(C(F)(F)F)c3)OCc3c(N5CCOCC5)ccnc3N4)C2)C1 (single isomer, unassigned) [Compound 238]"
43.7 nM,1040 M⁻¹ s⁻¹,7.08 µM,,,,,"C=CC(=O)N1CC[C@H](N2CC(c3cc(C)c4c(c3)Nc3nccc(N5CCOCC5)c3[C@@H](C)O4)C2)C1 (single isomer, unassigned) [Compound 239]"
55 nM,,5.13 µM,0.0242 µM,3.61e-05 s⁻¹,1490 M⁻¹ s⁻¹,,"C=CC(=O)N1CC[C@@H](N2CC(c3cc4c(c(C(F)(F)F)c3)OCc3c(N5CCOCC5)ccnc3N4)C2)C1 (single isomer, unassigned) [Compound 240]"
95.5 nM,,10.7 µM,0.0269 µM,,1380 M⁻¹ s⁻¹,3.715e-05 s⁻¹,"C=CC(=O)N1CC[C@@H](N2CC(c3cc4c(c(C(F)(F)F)n3)OCc3c(N5CCOCC5)ccnc3N4)C2)C1 (single isomer, unassigned) [Compound 241]"
126 nM,,> 10 µM,0.0802 µM,3.93e-05 s⁻¹,490 M⁻¹ s⁻¹,,"C=CC(=O)N1CC(N2CC[C@@H](c3cc4c(c(C)n3)O[C@@H](C)c3c(N5CCOCC5)ccnc3N4)C2)C1 (single isomer, unassigned) [Compound 243]"
56.2 nM,,> 10 µM,0.0559 µM,3.61e-05 s⁻¹,645 M⁻¹ s⁻¹,,"C=CC(=O)N1CC(N2CC[C@@H](c3cc4c(c(C)n3)O[C@H](C)c3c(N5CCOCC5)ccnc3N4)C2)C1 (single isomer, unassigned) [Compound 245]"
~28.8 nM,,> 10 µM,0.0946 µM,8.4e-05 s⁻¹,887 M⁻¹ s⁻¹,,"C=CC(=O)N1CC(N2CCC(c3cc4c(c(C)n3)O[C@H](C)c3c(C5CCOCC5)ccnc3N4)CC2)C1 (single isomer, unassigned) [Compound 246]"
776 nM,,> 3.98 µM,1.57 µM,5.48e-05 s⁻¹,34.8 M⁻¹ s⁻¹,,"C=CC(=O)N1CC(N2CCC(c3cc4c(c(C)n3)O[C@@H](C)c3c(C5CCOCC5)ccnc3N4)CC2)C1 (single isomer, unassigned) [Compound 247]"
43.7 nM,1110 M⁻¹ s⁻¹,> 10 µM,,,,,"C=CC(=O)N1CC(N2CC(c3cc(C)c4c(c3)Nc3nccc(C5CCOCC5)c3[C@@H](C)O4)C2)C1 (single isomer, unassigned) [Compound 251]"
2510 nM,,> 10 µM,25.5 µM,0.000306 s⁻¹,12 M⁻¹ s⁻¹,,"C=CC(=O)N1CC(N2CC(c3cc(C)c4c(c3)Nc3nccc(C5CCOCC5)c3[C@H](C)O4)C2)C1 (single isomer, unassigned) [Compound 252]"
3020 nM,,> 10 µM,10.7 µM,3.55e-05 s⁻¹,3.33 M⁻¹ s⁻¹,,"C=CC(=O)N1CC(N2CCCN(C)[C@H](c3cc(C)c4c(c3)Nc3nccc(C5CCOCC5)c3CO4)C2)C1 (single isomer, unassigned) [Compound 255]"
53.7 nM,,8.32 µM,0.0827 µM,6.71e-05 s⁻¹,811 M⁻¹ s⁻¹,,"C=CC(=O)N1CC(N2CC[C@@H](c3cc(C)c4c(c3)Nc3nccc(C5CCOCC5)c3CO4)N(C)CC2)C1 (single isomer, unassigned) [Compound 256]"
44.7 nM,,7.24 µM,0.0574 µM,7.95e-05 s⁻¹,1380 M⁻¹ s⁻¹,,"C=CC(=O)N1CC(N2CC[C@H](c3cc(C)c4c(c3)Nc3nccc(C5CCOCC5)c3CO4)N(C)CC2)C1 (single isomer, unassigned) [Compound 257]"
21.4 nM,619 M⁻¹ s⁻¹,6.46 µM,,,,,"C#Cc1cc(C2CCN(C3CN(C(=O)C=C)C3)CC2)cc2c1O[C@@H](C)c1c(N3CCOCC3)ccnc1N2 (single isomer, unassigned) [Compound 258]"
> 10000 nM,,> 10 µM,0.675 µM,3.66e-05 s⁻¹,54.2 M⁻¹ s⁻¹,,"C=CC(=O)N1CC(N2CCCN(C)[C@@H](c3cc(C)c4c(c3)Nc3nccc(C5CCOCC5)c3CO4)C2)C1 (single isomer, unassigned) [Compound 259]"
955 nM,,> 3.98 µM,1.11 µM,3.89e-05 s⁻¹,34.9 M⁻¹ s⁻¹,,"C=CC(=O)N1CC(N2CCC(c3cc4c(cn3)O[C@@H](C)c3c(N5CCOCC5)ccnc3N4)CC2)C1 (single isomer, unassigned) [Compound 261]"
117 nM,,> 10 µM,0.0518 µM,3.7e-05 s⁻¹,714 M⁻¹ s⁻¹,,"C=CC(=O)N1CC(N2CC(c3cc4c(c(C)n3)O[C@H](C)c3c(N5CCOCC5)ccnc3N4)C2)C1 (single isomer, unassigned) [Compound 270]"
692 nM,,> 10 µM,0.683 µM,4.07e-05 s⁻¹,59.6 M⁻¹ s⁻¹,,"CC#CC(=O)N1CC[C@H](N2CC(c3cc(C)c4c(c3)Nc3nccc(N5CCOCC5)c3[C@H](C)O4)C2)C1 (single isomer, unassigned) [Compound 281]"
30.9 nM,,> 10 µM,0.0397 µM,5.01e-05 s⁻¹,1260 M⁻¹ s⁻¹,,"C=CC(=O)N1CC[C@@H](N2CCC(c3cc4c(c(C)n3)OCc3c(N5CCOCC5)ccnc3N4)CC2)C1 (single isomer, unassigned) [Compound 282]"
69.2 nM,,> 10 µM,0.187 µM,7.12e-05 s⁻¹,381 M⁻¹ s⁻¹,,"C=CC(=O)N1CC[C@H](N2CCC(c3cc4c(c(C)n3)OCc3c(N5CCOCC5)ccnc3N4)CC2)C1 (single isomer, unassigned) [Compound 283]"
2040 nM,,> 10 µM,2 µM,3.49e-05 s⁻¹,17.4 M⁻¹ s⁻¹,,"CC#CC(=O)N1CC[C@@H](N2CC(c3cc(C)c4c(c3)Nc3nccc(N5CCOCC5)c3[C@H](C)O4)C2)C1 (single isomer, unassigned) [Compound 284]"
126 nM,,> 10 µM,0.146 µM,4.74e-05 s⁻¹,324 M⁻¹ s⁻¹,,"C=CC(=O)N1CC[C@@H](N2CC(c3cc4c(c(C5CC5)n3)OCc3c(-c5cnn(C)c5)ccnc3N4)C2)C1 (single isomer, unassigned) [Compound 286]"
129 nM,,> 10 µM,0.188 µM,0.000117 s⁻¹,622 M⁻¹ s⁻¹,,"C=CC(=O)N1CC[C@H](N2CC(c3cc4c(c(C5CC5)n3)OCc3c(-c5cnn(C)c5)ccnc3N4)C2)C1 (single isomer, unassigned) [Compound 287]"
129 nM,,10 µM,0.0411 µM,2.54e-05 s⁻¹,619 M⁻¹ s⁻¹,,"CC#CC(=O)N1CC[C@H](N2CC(c3cc(C)c4c(c3)Nc3nccc(N5CCOCC5)c3[C@@H](C)O4)C2)C1 (single isomer, unassigned) [Compound 288]"
123 nM,,> 10 µM,0.0628 µM,2.54e-05 s⁻¹,404 M⁻¹ s⁻¹,,"CC#CC(=O)N1CC[C@@H](N2CC(c3cc(C)c4c(c3)Nc3nccc(N5CCOCC5)c3[C@@H](C)O4)C2)C1 (single isomer, unassigned) [Compound 289]"
